# Data reported in patent EP0337503B1, “Fumigation methods and compositions” (Entek Corporation, priority 1983, dated 1984).
# Key:
# [1] = Storage stability: loss of ability of aqueous solutions to generate carbon disulfide upon contact with strong acid; type: physicochemical; conditions: aqueous solutions of tetrathiocarbonate salts, about 14 to about 16 percent by weight carbon disulfide equivalent, air-tight glass containers, 49° C.
# Description: Various tetrathiocarbonate salts are evaluated for storage stability by measuring the loss of the ability of aqueous solutions thereof to generate carbon disulfide upon contact with strong acid. Aqueous solutions of the salts listed in the following table, having an equivalent of from about 14 to about 16 percent by weight carbon disulfide, are stored in air-tight glass containers at a temperature of 49° C.
# nematode larvae = experiment: In-vitro nematocidal test: larvae treated in aqueous suspension, injected into root zone of tomato plants, gall count; type: in vivo, Meloidogyne incognita; conditions: larvae treated 1 hour; for Gall Count, replicate 2: control 88; for Gall Count, Mean: control 89; for Gall Count, replicate 1: control 90
# Description: The procedure of Example 2 is repeated except that potassium tetrathiocarbonate is substituted for stabilized ammonium tetrathiocarbonate and an in-vitro nematocidal test is used. In the in-vitro test, the nematode larvae are treated in aqueous suspension for 1 hour at the concentrations of fumigant given in the following table, washed twice with water, and injected into the active root zone of the tomato plants. After thirty days the roots are harvested, examined for galling, giving the results summarized below.
# Phytophthora cinnamomi = experiment: Fungicidal test, radial growth of mycelia colonies; type: cell-based
# Description: (§1) Thiocarbonate solutions are used in a test of their fungicidal properties. Cultures of four plant pathogenic fungi are grown upon potato dextrose agar at room temperature, in diffuse natural lighting. After one week, square blocks having 2 millimeter sides are cut from the edges of actively growing mycelia spots on the agar.
# (§2) The blocks are immersed in sterile deionized water, as a control, or in dilutions of thiocarbonate solutions using the sterile water, in a closed container. Subsequently, the blocks are removed and placed upon agar in clean plates, and mycelia are allowed to grow for one week.
# (§3) Radial growth of mycelia colonies is measured for each of the six to eight replicate plates used for a particular fungus, and average colony radius is calculated. Percent control is defined by the following equation: Percent control =[1-((Average radius of treated plates)/(Average radius of control plates))]x100 [formula]
# (§4) Concentrations given for solutions used to treat the agar blocks are expressed in grams of thiocarbonate solution per liter of diluted solution.
# Fusarium oxysporum = experiment: Fungicidal test, radial growth of mycelia colonies; type: cell-based
# Description: as §1, §2, §3, §4
# Verticillium dahliae = experiment: Fungicidal test, radial growth of mycelia colonies; type: cell-based
# Description: as §1, §2, §3, §4
# Sclerotium rolfsii = experiment: Fungicidal test, radial growth of mycelia colonies; type: cell-based
# Description: as §1, §2, §3, §4
# [2] = Decomposition in sandy loam soil at different moisture, CS2 in air space by gas chromatography; type: physicochemical; conditions: hours to maximum CS2 concentration in the air space
# Description: A sandy loam soil is placed in 1-liter glass bottles, fitted with stoppers having fluorocarbon liners and silicone rubber septa, to give a soil depth of about 4 cm. […] Thiocarbonate solution or carbon disulfide is injected near the bottom of the soil layer, the bottles are promptly sealed, and the air space in the bottles is sampled at intervals with a syringe, for gas chromatographic analysis of CS2. Results are summarized below, wherein degradation time is the number of hours required to achieve the maximum CS2 concentration in the air space.
# [3] = Effect of pH on production of CS2 from thiocarbonates in citrate-phosphate buffers, gas chromatography of air; type: physicochemical
# Description: Pure carbon disulfide is also injected, for comparison. A syringe is used to periodically sample air in the bottle, and the air is analyzed by gas chromatography.
# [4] = tested on: root-knot nematode larvae (Meloidogyne incognita); experiment: Greenhouse nematocide experiment with tomato plants, soil drench, root gall count; type: in vivo; conditions: 30 days; for Gall Counts, replicate 3: control 1; for Gall Counts, Mean: control 4.0; for Gall Counts, replicate 2: control 7; for Gall Counts, replicate 1: control 4
# Description: In the experiment, thirty containers are used, each containing about 500 grams of sterilized sandy loam soil. Each container contains one tomato plant. Each container is injected with four 5-milliliter portions of extract from nematode-infested pepper roots, one inch below the soil surface, producing an initial population of 2000 root-knot nematode larvae (Meloidogyne incognita) per container.
# Ten treatments are replicated three times, each treatment consisting of drenching the soil with a solution containing the fumigant to provide the dosage of CS2 given in the following table. The solutions are diluted with sufficient water to saturate the soil. The treatments include calcium tetrathiocarbonate, stabilized ammonium tetrathiocarbonate, and carbon disulfide at three levels, plus an untreated control. After drenching, each container is allowed to stand at ambient conditions. The plants are harvested after 30 days of growth, and soil is removed from the roots by a gentle washing with water. By use of a magnifying glass, the number of root galls is counted on each plant.
# Results are summarized below, wherein the "Application" represents milligrams of treatment per kilogram of soil, calculated as the thiocarbonate salt and the equivalent carbon disulfide. Gall counts are mean values from the three replicates.
# [5] = 50 ppm salt (6.3 ppm CS2 equiv. CaCS4; 6.5 ppm K2CS4)
# [6] = 100 ppm salt (12.5 ppm CS2 equiv. CaCS4; 13 ppm K2CS4)
# [7] = 150 ppm salt (18.8 ppm CS2 equiv. CaCS4; 19.5 ppm K2CS4)
# [8] = 1 g/l, listed as K2CS4 (9.43%CS2)
# [9] = 10 g/l, listed as K2CS4 (9.43%CS2)
# [10] = Soil Moisture 0 % of Saturation
# [11] = Soil Moisture 50 % of Saturation
# [12] = Soil Moisture 100 % of Saturation
# [13] = 100 g/l thiocarbonate solution per liter of diluted solution
# [14] = highest application: 638/89 ppm ((NH4)2CS4·(NH4)2S), 730/91 (CaCS4), 97 ppm (CS2)
# [15] = lowest application: 213/30 ppm ((NH4)2CS4·(NH4)2S), 245/31 (CaCS4), 32 ppm (CS2)
# [16] = middle application: 425/60 ppm ((NH4)2CS4·(NH4)2S), 490/61 (CaCS4), 65 ppm (CS2)
molecule,measurement,setting,value
"S=C(S)SS [Formula K2CS4, potassium tetrathiocarbonate]",Half-life (months),[1]; listed as K^+,2.9 months
same,"Gall Count, replicate 2",nematode larvae; [5],66
same,"Gall Count, Mean",nematode larvae; [5],49.5
same,"Gall Count, replicate 1",nematode larvae; [5],33
same,"Gall Count, replicate 2",nematode larvae; [6],145
same,"Gall Count, Mean",nematode larvae; [6],171.5
same,"Gall Count, replicate 1",nematode larvae; [6],198
same,"Gall Count, replicate 2",nematode larvae; [7],22
same,"Gall Count, Mean",nematode larvae; [7],35.5
same,"Gall Count, replicate 1",nematode larvae; [7],49
same,Percent Control Phytophthora cinnamomi,Phytophthora cinnamomi; [8],56%
same,Percent Control Phytophthora cinnamomi,Phytophthora cinnamomi; [9],68%
same,Percent Control Phytophthora cinnamomi,Phytophthora cinnamomi; 100 g/l,100%
same,Percent Control Fusarium oxysporum,Fusarium oxysporum; [8],8%
same,Percent Control Fusarium oxysporum,Fusarium oxysporum; [9],10%
same,Percent Control Fusarium oxysporum,"Fusarium oxysporum; 100 g/l thiocarbonate solution per liter of diluted solution, listed as K2CS4 (9.43%CS2)",76%
same,Percent Control Verticillium dahliae,Verticillium dahliae; [8],27%
same,Percent Control Verticillium dahliae,Verticillium dahliae; [9],15%
same,Percent Control Verticillium dahliae,Verticillium dahliae; 100 g/l,100%
same,Percent Control Sclerotium rolfsii,Sclerotium rolfsii; [8],42%
same,Percent Control Sclerotium rolfsii,Sclerotium rolfsii; [9],8%
same,Percent Control Sclerotium rolfsii,Sclerotium rolfsii; 100 g/l,100%
same,Degradation Time,[2]; [10],2 h
same,Degradation Time,[2]; [11],5 h
same,Degradation Time,[2]; [12],48 h
"S=C(S)SS [NH4^+, ammonium tetrathiocarbonate]",Half-life (months),[1],0.17 months
"S=C(S)SS [Na2CS4 (10.6%CS2), sodium tetrathiocarbonate]",Half-life (months),[1]; listed as Na^+,3.0 months
same,Percent Control Phytophthora cinnamomi,Phytophthora cinnamomi; 10 g/l,37%
same,inhibition of growth at 100000 µg/mL,"Phytophthora cinnamomi; Phytophthora cinnamomi, 168 h, 100 g/l, read-out: Percent Control Phytophthora cinnamomi",100%
same,Percent Control Fusarium oxysporum,Fusarium oxysporum; 1 g/l,4%
same,Percent Control Fusarium oxysporum,Fusarium oxysporum; 10 g/l,6%
same,Percent Control Fusarium oxysporum,Fusarium oxysporum; [13],100%
same,Percent Control Verticillium dahliae,Verticillium dahliae; 1 g/l,23%
same,inhibition of growth,"Verticillium dahliae; Verticillium dahliae, 168 h, 10 g/l, read-out: Percent Control Verticillium dahliae",26%
same,inhibition of growth at 100000 µg/mL,"Verticillium dahliae; Verticillium dahliae, 168 h, 100 g/l, read-out: Percent Control Verticillium dahliae",100%
same,Percent Control Sclerotium rolfsii,Sclerotium rolfsii; 10 g/l,100%
same,inhibition of growth at 100000 µg/mL,"Sclerotium rolfsii; Agroathelia rolfsii, 168 h, 100 g/l, read-out: Percent Control Sclerotium rolfsii",100%
stabilized ammonium tetrathiocarbonate [(NH4)2CS4·(NH4)2S],Percent Control Phytophthora cinnamomi,Phytophthora cinnamomi; 1 g/l,97%
same,Percent Control Phytophthora cinnamomi,Phytophthora cinnamomi; 10 g/l,74%
same,Percent Control Phytophthora cinnamomi,Phytophthora cinnamomi; 100 g/l,100%
same,Percent Control Fusarium oxysporum,Fusarium oxysporum; 1 g/l,70%
same,Percent Control Fusarium oxysporum,Fusarium oxysporum; 10 g/l,100%
same,Percent Control Fusarium oxysporum,Fusarium oxysporum; [13],100%
same,Percent Control Verticillium dahliae,Verticillium dahliae; 1 g/l,41%
same,Percent Control Verticillium dahliae,Verticillium dahliae; 10 g/l,81%
same,Percent Control Verticillium dahliae,Verticillium dahliae; 100 g/l,91%
same,Percent Control Sclerotium rolfsii,Sclerotium rolfsii; 1 g/l,49%
same,Percent Control Sclerotium rolfsii,Sclerotium rolfsii; 10 g/l,93%
same,Percent Control Sclerotium rolfsii,Sclerotium rolfsii; 100 g/l,100%
same,Degradation Time,[2]; [10],2 h
same,Degradation Time,[2]; [11],3 h
same,Degradation Time,[2]; [12],48 h
same,Half-life (minutes) for production of carbon disulfide,"[3]; pH 5.2, 125 milligrams per liter of thiocarbonate ion",1 min
same,Half-life (minutes) for production of carbon disulfide,"[3]; pH 6.0, 125 milligrams per liter of thiocarbonate ion",1 min
same,Half-life (minutes) for production of carbon disulfide,"[3]; pH 7.0, 125 milligrams per liter of thiocarbonate ion",2.1 min
same,Half-life (minutes) for production of carbon disulfide,"[3]; pH 8.0, 125 milligrams per liter of thiocarbonate ion, CaCS4 values above pH 7 called unreliable",9.2 min
same,Half-life (minutes) for production of carbon disulfide,"[3]; pH 9.0, 125 milligrams per liter of thiocarbonate ion, CaCS4 values above pH 7 called unreliable",26.1 min
same,"Gall Counts, replicate 3",[4]; [14],2
same,"Gall Counts, Mean",[4]; [14],4.3
same,"Gall Counts, replicate 2",[4]; [14],5
same,"Gall Counts, replicate 1","[4]; highest application: 638 ppm salt/89 ppm Eq. CS2 ((NH4)2CS4·(NH4)2S), 730/91 (CaCS4), 97 ppm (CS2)",6
same,"Gall Counts, replicate 3",[4]; [15],3
same,"Gall Counts, Mean",[4]; [15],5.0
same,"Gall Counts, replicate 2",[4]; [15],7
same,"Gall Counts, replicate 1","[4]; lowest application: 213 ppm salt/30 ppm Eq. CS2 ((NH4)2CS4·(NH4)2S), 245/31 (CaCS4), 32 ppm (CS2)",5
same,"Gall Counts, replicate 3",[4]; [16],6
same,"Gall Counts, Mean",[4]; [16],10.0
same,"Gall Counts, replicate 2",[4]; [16],15
same,"Gall Counts, replicate 1","[4]; middle application: 425 ppm salt/60 ppm Eq. CS2 ((NH4)2CS4·(NH4)2S), 490/61 (CaCS4), 65 ppm (CS2)",9
